# Measured values from ChEMBL document CHEMBL3879881, “Substituted pyrazolyl compounds for the treatment of inflammation” (2005).
# Biological target: T1, Inhibitor of nuclear factor kappa-B kinase subunit beta (Homo sapiens, UniProt O14920)
# T1 sequence (O14920 whole entry): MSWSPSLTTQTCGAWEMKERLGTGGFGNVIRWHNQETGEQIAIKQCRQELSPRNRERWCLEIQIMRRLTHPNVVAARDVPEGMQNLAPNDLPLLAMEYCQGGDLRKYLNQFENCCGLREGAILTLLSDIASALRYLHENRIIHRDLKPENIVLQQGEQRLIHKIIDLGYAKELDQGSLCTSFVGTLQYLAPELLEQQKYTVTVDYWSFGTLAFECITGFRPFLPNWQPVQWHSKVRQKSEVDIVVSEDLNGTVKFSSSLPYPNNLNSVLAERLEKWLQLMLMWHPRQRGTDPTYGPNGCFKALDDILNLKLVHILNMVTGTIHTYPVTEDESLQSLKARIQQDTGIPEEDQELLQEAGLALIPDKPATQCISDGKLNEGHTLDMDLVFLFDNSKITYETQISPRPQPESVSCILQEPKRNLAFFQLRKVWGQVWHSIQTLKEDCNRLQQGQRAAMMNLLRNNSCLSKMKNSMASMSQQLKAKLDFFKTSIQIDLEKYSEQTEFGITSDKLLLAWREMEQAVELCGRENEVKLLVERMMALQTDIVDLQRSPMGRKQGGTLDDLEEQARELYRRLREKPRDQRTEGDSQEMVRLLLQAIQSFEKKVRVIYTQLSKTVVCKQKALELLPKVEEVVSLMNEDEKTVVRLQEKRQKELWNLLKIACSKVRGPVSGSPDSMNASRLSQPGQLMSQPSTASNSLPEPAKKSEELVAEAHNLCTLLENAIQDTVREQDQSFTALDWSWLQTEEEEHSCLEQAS
# Assay: Inhibition of human recombinant C-terminal FLAG-epitope-tagged IKK2 expressed in baculovirus using biotinylated IkappaBalpha peptide as substrate assessed as decrease in [gamma-33P]-ATP incorporation in substrate after 30 mins by scintillation counting method
row,Structure (SMILES),IC50
1,CC1Cc2c(C(N)=O)nn(-c3ccc(F)cc3F)c2-c2cc(NC(=O)c3ccncc3Cl)ccc21 (centres undefined),≤ 1000 nM
2,CS(=O)(=O)c1ccc(C(=O)Nc2ccc3c(c2)-c2c(c(C(N)=O)nn2-c2ccc(OCC(O)CO)cc2)CC3)c(Cl)c1 (centres undefined),≤ 1000 nM
3,NC(=O)c1nn(-c2ccc3c(c2)OCO3)c2c1CCc1ccc(NC(=O)c3ccccc3OC(F)(F)F)cc1-2,1000 to 10000 nM
4,NC(=O)c1nn(-c2ccc(S(N)(=O)=O)cc2)c2c1CCc1ccc(NS(=O)(=O)c3ccc(-c4ccccn4)s3)cc1-2,10000 to 100000 nM
5,CN(C)CCc1cc(C(=O)Nc2ccc3c(c2)-c2c(c(C(N)=O)nn2-c2ccc(F)cc2)CC3)c(Cl)cn1,≤ 1000 nM
6,Cc1ccn2c(C)c(C(=O)Nc3ccc4c(c3)-c3c(c(C(N)=O)nn3-c3ccc(S(C)(=O)=O)cc3)CC4)nc2c1,1000 to 10000 nM
7,NC(=O)c1nn(-c2ccc(S(N)(=O)=O)cc2)c2c1CCc1ccc(NS(=O)(=O)CC(F)(F)F)cc1-2,1000 to 10000 nM
8,CCOC(=O)/C=C/c1ccc(-n2nc(C(N)=O)c3c2-c2cc(NC(=O)c4ccccc4Cl)ccc2CC3)cc1,1000 to 10000 nM
9,CCCS(=O)(=O)c1ccc(-n2nc(C(N)=O)c3c2-c2cc(NC(=O)c4cc(NC(=O)OC(C)(C)C)ccc4Cl)ccc2CC3)cc1,1000 to 10000 nM
10,NC(=O)c1nn(-c2ccc(S(N)(=O)=O)cc2)c2c1CCc1ccc(NS(=O)(=O)c3cc(Cl)c(Cl)cc3Cl)cc1-2,1000 to 10000 nM
11,NC(=O)c1nn(-c2cccc(F)c2)c2c1CCc1ccc(NC(=O)c3cccc(F)c3F)cc1-2,1000 to 10000 nM
12,NC(=O)c1nn(-c2ccc(/C=C3\CCOC3=O)cc2)c2c1CCc1ccc(NC(=O)c3ccccc3Cl)cc1-2,1000 to 10000 nM
13,CN1CCN(c2ncc(Cl)c(C(=O)Nc3ccc4c(c3)-c3c(c(C(N)=O)nn3-c3ccc(F)cc3)CC4)n2)CC1,≤ 1000 nM
14,NC(=O)c1nn(-c2ccc(S(N)(=O)=O)cc2)c2c1CCc1ccc(NC(=O)c3ccncc3)cc1-2,≤ 1000 nM
15,COCC(=O)Nc1ccc2c(c1)-c1c(c(C(N)=O)nn1-c1ccc(S(N)(=O)=O)cc1)CC2,1000 to 10000 nM
16,COc1ccccc1C(=O)Nc1ccc2c(c1)-c1c(c(C(N)=O)nn1-c1ccc(S(N)(=O)=O)cc1)CC2,10000 to 100000 nM
17,NC(=O)c1nn(-c2ccc(S(N)(=O)=O)cc2)c2c1CCc1ccc(NS(=O)(=O)c3ccccc3Cl)cc1-2,10000 to 100000 nM
18,CS(=O)(=O)c1ccc(-n2nc(C(N)=O)c3c2-c2cc(NC(=O)[C@@H](N)Cc4c[nH]cn4)ccc2CC3)cc1,1000 to 10000 nM
19,COc1ccc(S(=O)(=O)Nc2ccc3c(c2)-c2c(c(C(N)=O)nn2-c2ccc(S(N)(=O)=O)cc2)CC3)cc1OC,10000 to 100000 nM
20,NC(=O)c1nn(-c2ccc(S(=O)(=O)N3CCOCC3)cc2)c2c1CCc1ccc(N)cc1-2,1000 to 10000 nM
21,CN1CC=C(c2cc(C(=O)Nc3ccc4c(c3)-c3c(c(C(N)=O)nn3-c3ccc(F)cc3)CC4)c(Cl)cn2)CC1,≤ 1000 nM
22,NC(=O)c1nn(-c2ccc(OC(F)(F)F)cc2)c2c1CCc1ccc(NC(=O)c3ccccc3Cl)cc1-2,1000 to 10000 nM
23,C[S+]([O-])c1ccc(-n2nc(C(N)=O)c3c2-c2cc(NC(=O)c4cc5c(cc4Cl)OCO5)ccc2CC3)cc1 (centres undefined),≤ 1000 nM

row,Structure (SMILES),IC50
1,NC(=O)c1nn(-c2cccc([N+](=O)[O-])c2)c2c1CCc1ccc(NC(=O)c3ccccc3Cl)cc1-2,1000 to 10000 nM
2,C[C@@H](N)C(=O)Nc1ccc2c(c1)-c1c(c(C(N)=O)nn1-c1ccc(S(N)(=O)=O)cc1)CC2,1000 to 10000 nM
3,NC(=O)c1nn(-c2ccc3c(c2)OCO3)c2c1CCc1ccc(NC(=O)c3cc(CCN4CCOCC4)ncc3Cl)cc1-2,≤ 1000 nM
4,NC(=O)c1nn(-c2ccc(-c3ccoc3)cc2)c2c1CCc1ccc(NC(=O)c3ccccc3Cl)cc1-2,1000 to 10000 nM
5,NC(=O)c1nn(-c2ccc(S(=O)(=O)N3CC=CC3)cc2)c2c1CCc1ccc(N)cc1-2,1000 to 10000 nM
6,NCc1ccc(Cl)c(C(=O)Nc2ccc3c(c2)-c2c(c(C(N)=O)nn2-c2ccc4c(c2)OCO4)CC3)n1,1000 to 10000 nM
7,CN1CCN(c2cc(C(=O)Nc3ccc4c(c3)-c3c(c(C(N)=O)nn3-c3ccc5c(c3)OCO5)CC4)c(Cl)cn2)CC1,≤ 1000 nM
8,NC(=O)c1nn(-c2ccc(OCC(O)CO)cc2)c2c1CCc1ccc(NC(=O)c3cccnc3Cl)cc1-2 (centres undefined),≤ 1000 nM
9,N#Cc1cc(C(=O)Nc2ccc3c(c2)-c2c(c(C(N)=O)nn2-c2ccc4c(c2)OCO4)CC3)c(Cl)cn1,≤ 1000 nM
10,CC(=O)Nc1ccc2c(c1)-c1c(c(C(N)=O)nn1-c1ccc(S(=O)(=O)N(C)C)cc1)CC2,1000 to 10000 nM
11,NC(=O)c1nn(-c2ccc(S(N)(=O)=O)cc2)c2c1CCc1ccc(NS(=O)(=O)c3ccc(F)c(F)c3)cc1-2,10000 to 100000 nM
12,NC(=O)c1nn(-c2ccc3c(c2)OCO3)c2c1CCc1ccc(NC(=O)CNCC3CC3)cc1-2,1000 to 10000 nM
13,Cc1ccc(S(=O)(=O)Nc2ccc3c(c2)-c2c(c(C(N)=O)nn2-c2ccc(S(N)(=O)=O)cc2)CC3)cc1,10000 to 100000 nM
14,CCCS(=O)(=O)c1ccc(-n2nc(C(N)=O)c3c2-c2cc(NC(=O)c4cccnc4Cl)ccc2CC3)cc1,1000 to 10000 nM
15,C[C@@H]1CN(c2cc(C(=O)Nc3ccc4c(c3)-c3c(c(C(N)=O)nn3-c3ccc(F)cc3)CC4)c(Cl)cn2)CCN1C,≤ 1000 nM
16,COc1ccc(CNc2ccc3c(c2)-c2c(c(C(N)=O)nn2-c2ccc(S(N)(=O)=O)cc2)CC3)cc1,1000 to 10000 nM
17,C[S+]([O-])c1ccc(Cl)c(C(=O)Nc2ccc3c(c2)-c2c(c(C(N)=O)nn2-c2ccc(F)cc2)CC3)c1 (centres undefined),≤ 1000 nM
18,C[C@H](N)C(=O)Nc1ccc2c(c1)-c1c(c(C(N)=O)nn1-c1ccc(S(N)(=O)=O)cc1)CC2,1000 to 10000 nM
19,CN(C)CCOc1ccc(Cl)c(C(=O)Nc2ccc3c(c2)-c2c(c(C(N)=O)nn2-c2ccc4c(c2)OCO4)CC3)c1,1000 to 10000 nM
20,Cc1nc(S(=O)(=O)Nc2ccc3c(c2)-c2c(c(C(N)=O)nn2-c2ccc(S(N)(=O)=O)cc2)CC3)cn1C,10000 to 100000 nM
21,NC(=O)c1nn(-c2ccc(S(N)(=O)=O)cc2)c2c1CCc1ccc(NC(=O)c3c(Cl)cccc3Cl)cc1-2,≤ 1000 nM
22,NC(=O)c1nn(-c2ccc(S(N)(=O)=O)cc2)c2c1CCc1ccc(NS(=O)(=O)c3ccc4cccnc4c3)cc1-2,> 100000 nM
23,N#Cc1cc(C(=O)Nc2ccc3c(c2)-c2c(c(C(N)=O)nn2-c2ccc(F)cc2)CC3)c(Cl)cn1,≤ 1000 nM

row,Structure (SMILES),IC50
1,COc1ccc(C(=O)Nc2ccc3c(c2)-c2c(c(C(N)=O)nn2-c2ccc(S(N)(=O)=O)cc2)CC3)cc1OC,1000 to 10000 nM
2,CCN1CCN(c2cc(C(=O)Nc3ccc4c(c3)-c3c(c(C(N)=O)nn3-c3ccc(F)cc3)CC4)c(Cl)cn2)CC1,≤ 1000 nM
3,NC(=O)c1nn(-c2ccc(F)cc2)c2c1CCc1ccc(NC(=O)c3ccnc(N4CCOCC4)c3)cc1-2,≤ 1000 nM
4,CN1CCN(c2cc(C(=O)Nc3ccc4c(c3)-c3c(c(C(N)=O)nn3-c3ccc(S(C)(=O)=O)cc3)CC4)c(Cl)cn2)CC1,≤ 1000 nM
5,NC(=O)c1nn(-c2cc(F)c(N)c(F)c2)c2c1CCc1ccc(NC(=O)c3ccncc3Cl)cc1-2,≤ 1000 nM
6,CC(C)CNc1ccc2c(c1)-c1c(c(C(N)=O)nn1-c1ccc(S(N)(=O)=O)cc1)CC2,10000 to 100000 nM
7,CNC(=O)/C=C/c1ccc(-n2nc(C(N)=O)c3c2-c2cc(NS(C)(=O)=O)ccc2CC3)cc1,≤ 1000 nM
8,NC(=O)c1nn(-c2ccc(S(N)(=O)=O)cc2)c2c1CCc1ccc(NS(=O)(=O)c3ccc(Cl)cc3)cc1-2,1000 to 10000 nM
9,CC(C)S(=O)(=O)Nc1ccc2c(c1)-c1c(c(C(N)=O)nn1-c1ccc(S(N)(=O)=O)cc1)CC2,1000 to 10000 nM
10,N#Cc1cccc(C(=O)Nc2ccc3c(c2)-c2c(c(C(N)=O)nn2-c2ccc(S(N)(=O)=O)cc2)CC3)c1,≤ 1000 nM
11,NC(=O)c1nn(-c2ccc(S(N)(=O)=O)cc2)c2c1CCc1ccc(NC(=O)c3ccccc3Cl)cc1-2,≤ 1000 nM
12,NC(=O)c1nn(-c2ccc(C(F)(F)F)cc2)c2c1CCc1ccc(NC(=O)c3ccccc3Cl)cc1-2,1000 to 10000 nM
13,CC1Cc2c(C(N)=O)nn(-c3ccc(F)cc3)c2-c2cc(NC(=O)c3ccncc3Cl)ccc21 (centres undefined),≤ 1000 nM
14,NCCCS(=O)(=O)c1ccc(-n2nc(C(N)=O)c3c2-c2cc(NC(=O)c4cccnc4Cl)ccc2CC3)cc1,1000 to 10000 nM
15,CC(=O)Oc1cccc(C(=O)Nc2ccc3c(c2)-c2c(c(C(N)=O)nn2-c2cccc(F)c2)CC3)c1C,1000 to 10000 nM
16,CN(C)CCOc1ccc(-n2nc(C(N)=O)c3c2-c2cc(NC(=O)c4ccccc4Cl)ccc2CC3)cc1,1000 to 10000 nM
17,CC(C)c1ccc(-n2nc(C(N)=O)c3c2-c2cc(NC(=O)c4ccccc4Cl)ccc2CC3)cc1,1000 to 10000 nM
18,Cn1cnc(S(=O)(=O)Nc2ccc3c(c2)-c2c(c(C(N)=O)nn2-c2ccc(S(N)(=O)=O)cc2)CC3)c1,10000 to 100000 nM
19,CS(=O)(=O)c1ccc(-n2nc(C(N)=O)c3c2-c2cc(NC(=O)c4cnccc4Cl)ccc2CC3)cc1,1000 to 10000 nM
20,NC(=O)c1nn(-c2ccc3c(c2)OCO3)c2c1CCc1ccc(NC(=O)c3cc(N4CCNCC4)ncc3Cl)cc1-2,≤ 1000 nM
21,CCS(=O)(=O)c1ccc(-n2nc(C(N)=O)c3c2-c2cc(N)ccc2CC3)cc1,1000 to 10000 nM
22,C[S+]([O-])c1ccc(Cl)c(C(=O)Nc2ccc3c(c2)-c2c(c(C(N)=O)nn2-c2ccc(O)cc2)CC3)c1 (centres undefined),≤ 1000 nM
23,C[C@H]1CN(c2cc(C(=O)Nc3ccc4c(c3)-c3c(c(C(N)=O)nn3-c3ccc(F)cc3)CC4)c(Cl)cn2)CCN1,≤ 1000 nM
